Test results published in patent US5885987A, “Phenylene derivatives” (Kowa Co., Ltd., priority 1996, dated 1999).
Where two headings read alike, the source gives them in different places.

Legend:
H1 receptor = target: T1, H1 receptor (Cavia porcellus, UniProt P31389); assay: H1 receptor binding inhibition test ([^3 H]mepyramin, guinea pig cerebromembranous protein); settings: for inhibition at 100 µM: a: 100 μM, read-out: H1 receptor (%), inhibition rate; for Kd: read-out: H1 receptor, dissociation constant KD
T1 construct: guinea pig cerebromembranous protein; from tissue; host or cells: guinea pig cerebral (brain) membranes
Procedure: 1) H1 Receptor Binding Inhibition Test
An ice-cooled phosphate buffer was added to terminate the reaction, followed by immediate filtration through a Wattman CF/C filter. The filter was washed twice with 20 ml aliquots of the ice-cooled buffer. The radioactivity of the residue was measured by a liquid scintillation counter. From a measurement value obtained without the addition of the test compound and measurements values obtained upon addition of the test compound at various concentrations, the dose-response of the inhibitory action of the test compound was measured and the 50% inhibitory concentration (IC50) was determined. Using the Cheng-Prusoff formula, a dissociation constant was calculated from the IC50. In a binding assay, 10^-4 M R(-)dimethindene was used for the measurement of a nonspecific binding.

LTD4 receptor = target: T2, LTD4 receptor (Cavia porcellus, UniProt Q2NNR5); assay: LTD4 receptor binding inhibition test ([^3 H]leukotriene D4, guinea pig pulmomembranous protein); settings: for Kd: read-out: LTD4 receptor, dissociation constant KD; for inhibition at 10 µM: b: 10 μM; for inhibition at 10 µM / inhibition at 100 µM: read-out: LTD4 receptor (%), inhibition rate; for inhibition at 100 µM: a: 100 μM
T2 construct: guinea pig pulmomembranous protein; from tissue; host or cells: guinea pig lung membranes
T2 sequence (Q2NNR5 1-340): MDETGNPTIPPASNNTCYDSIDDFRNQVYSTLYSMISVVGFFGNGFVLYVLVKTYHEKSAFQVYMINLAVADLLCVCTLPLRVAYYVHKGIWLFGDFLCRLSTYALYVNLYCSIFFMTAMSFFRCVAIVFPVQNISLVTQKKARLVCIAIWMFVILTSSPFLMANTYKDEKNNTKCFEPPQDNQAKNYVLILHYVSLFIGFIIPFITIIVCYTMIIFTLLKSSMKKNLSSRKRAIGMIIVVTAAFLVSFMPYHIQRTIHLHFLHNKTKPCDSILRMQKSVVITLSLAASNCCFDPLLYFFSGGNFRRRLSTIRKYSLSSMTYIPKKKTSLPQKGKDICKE
Procedure: 2) LTD4 Receptor Binding Inhibition Test
An ice-cooled tris hydrochloride/sodium chloride buffer (10 mM/100 mM, pH 7.5) was added to terminate the reaction, followed by immediate filtration through a Wattman CF/C filter. The filter was washed twice with 20 ml aliguots of the ice-cooled buffer. The radioactivity of the residue was measured by a liquid scintillation counter. […] In a binding assay, 2 μM leukotriene D4 was used for the measurement of a nonspecific binding.

T1 sequence (P31389 whole entry): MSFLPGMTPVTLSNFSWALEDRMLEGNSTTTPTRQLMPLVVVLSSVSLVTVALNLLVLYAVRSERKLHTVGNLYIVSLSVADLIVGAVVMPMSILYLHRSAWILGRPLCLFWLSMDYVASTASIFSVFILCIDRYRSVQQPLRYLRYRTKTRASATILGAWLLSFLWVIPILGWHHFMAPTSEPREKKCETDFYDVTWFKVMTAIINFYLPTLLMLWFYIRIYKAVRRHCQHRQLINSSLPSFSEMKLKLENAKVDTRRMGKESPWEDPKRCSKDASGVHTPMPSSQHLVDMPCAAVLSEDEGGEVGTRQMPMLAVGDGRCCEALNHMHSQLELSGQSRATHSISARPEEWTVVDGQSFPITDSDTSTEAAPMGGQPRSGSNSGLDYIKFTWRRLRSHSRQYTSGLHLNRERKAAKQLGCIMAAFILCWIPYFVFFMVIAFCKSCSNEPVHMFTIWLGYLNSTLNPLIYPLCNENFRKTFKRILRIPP

inhibition at 100 µM (H1 receptor) [%]	Kd (LTD4 receptor) [nM]	Kd (H1 receptor) [nM]	SMILES	also measured
29	215	–	CC1(C)C(=O)Nc2ccc(OCc3cccc(OCc4ccc5ccccc5n4)c3)cc21 [Example 14, 3,3'-Dimethyl-5-[3-(2-quinolinylmethoxy)benzyloxy]-2,3-dihydro-1H-indol-2-one]	–
–	1100	78700	CC1(C)C(=O)Nc2ccc(OCc3ccc(OCc4ccc5ccccc5n4)cc3)cc21 [Example 18, 3,3-dimethyl-5-[4-(2-quinolinylmethoxy)benzyloxy]-2,3-dihydro-1H-indol-2-one]	–
28	–	–	Cc1ccc(OCc2ccc(OCc3ccc4ccccc4n3)cc2)c2c1NC(=O)CC2 [Example 21, 8-Methyl-5-[4-(2-quinolinylmethoxy)benzyloxy]-1,2,3,4-tetrahydroquinolin-2-one]	inhibition at 10 µM (LTD4 receptor): 33%
45	1240	–	O=C1CCc2cc(OCc3ccc(OCc4ccc5ccccc5n4)cc3)ccc2N1 [Example 22]	–
41	500	–	O=C1CCc2ccc(OCc3ccc(OCc4ccc5ccccc5n4)cc3)cc2N1 [Example 23]	–
–	301	25800	O=C1CCc2cccc(OCc3ccc(OCc4ccc5ccccc5n4)cc3)c2N1 [Example 24, 8-[4-(2-Quinolinylmethoxy)benzyloxy]-1,2,3,4-tetrahydroquinolin-2-one]	–
–	129	57800	O=C1CCCc2cc(OCc3ccc(OCc4ccc5ccccc5n4)cc3)ccc2N1 [Example 25, 7-[4-(2-Quinolinylmethoxy)benzyloxy]-2,3,4,5-tetrahydro-1H-benzo[b]azepin-2-one]	–
38	139	–	Cc1ccc(OCc2ccc(OCc3ccc4ccccc4n3)cc2)c2c1NC(=O)C2(C)C [Example 27, 4-[4-(2-Quniolinylmethoxy)benzyloxy]-3,3,7-trimethyl-2,3-dihydydro-1H-indol-2-one]	–
30	1400	–	CC1(C)C(=O)Nc2cc(OCc3ccc(OCc4ccc5ccccc5n4)cc3)ccc21 [Example 28, 3,3-Dimethyl-6-[4-(2-quinolinylmethoxy)benzyloxy]-2,3-dihydro-1H-indol-2-one]	–
34	3100	–	CCCCCCc1cc(OCc2ccc(OCc3ccc4ccccc4n3)cc2)cc2c1C(C)(C)C(=O)N2 [Example 29, 3,3-Dimethyl-4-(n-hexyl)-6-(4-(2-quinolinylmethoxy)benzyloxy]-2,3-dihydro-1H-indol-2-one]	–
–	304	19800	O=C1CCc2ccc(OCc3cccc(OCc4ccc5ccc(Cl)cc5n4)c3)cc2N1 [Example 31, 7-[3-(7-chloro-2-quinolinylmethoxy)benzyloxy]-1,2,3,4-tetrahydroquinolin-2-one]	–
43	109	–	O=C1CSc2cc(OCc3cccc(OCc4ccc5ccc(Cl)cc5n4)c3)ccc2N1 [Example 32, 7-[3-(7-chloro-2-quinolinylmethoxy)benzyloxy]-3,4-dihydro-2H-1,4-benzothiazin-3-one]	–
–	–	83600	O=C1CCc2ccc(OCc3ccc(OCc4nc5ccccc5s4)cc3)cc2N1 [Example 42, 7-(4-(2-benzothiazolylmethoxy)benzyloxy]-1,2,3,4-tetrahydroquinolin-2-one]	inhibition at 10 µM (LTD4 receptor): 17%
41	129	–	Cc1ccc(OC(=O)c2cccc(OCc3ccc4ccccc4n3)c2)c2c1NC(=O)CC2 [Example 54, 8-Methyl-5-[3-(2-quinolinylmethoxy)benzoyloxy]-1,2,3,4-tetrahydroquinolin-2-one]	–
43	348	–	O=C1CCc2cc(OC(=O)c3cccc(OCc4ccc5ccccc5n4)c3)ccc2N1 [Example 55, 6-[3-(2-Quinolinylmethoxy)benzoyloxy]-1,2,3,4-tetrahydroquinolin-2-one]	–
–	–	93000	O=C1CCc2ccc(OC(=O)c3cccc(OCc4ccc5ccccc5n4)c3)cc2N1 [Example 56, 7-[3-(2-Quinolinylmethoxy)benzoyloxy]-1,2,3,4-tetrahydroquinolin-2-one]	inhibition at 100 µM (LTD4 receptor): 12%
–	–	57900	O=C1CCCc2cc(OC(=O)c3cccc(OCc4ccc5ccccc5n4)c3)ccc2N1 [Example 57]	Ki (LTD4 receptor; read-out: LTD4 receptor, dissociation constant KD (converted)): 851 nM

Further lines, the compound ahead of its results:

SMILES	inhibition at 100 µM (H1 receptor) [%]	Kd (LTD4 receptor) [nM]	Kd (H1 receptor) [nM]	also measured
CCCCCCc1cc(OCc2cccc(OCc3ccc4ccccc4n3)c2)cc2c1C(C)(C)C(=O)N2 [Example 16, 3,3-Dimethyl-4-(n-hexyl)-6-[3-(2-quinolinylmethoxy)benzyloxy]-2,3-dihydro-1H-indol-2-one]	48	2500	–	–
O=C1CCc2ccc(OCc3cccc(OCc4ncc5ccccc5n4)c3)cc2N1 [Example 34, 7-[3-(2-quinazolinylmethoxy)benzyloxy]-1,2,3,4-tetrahydroquinolin-2-one]	–	196	100000	–
Cn1c(COc2cccc(COc3ccc4c(c3)SCC(=O)N4)c2)nc2ccccc21 [Example 36, 7-(3-(N-methylbenzimidazo1-2-yl-methoxy)benzyloxy]-3,4-dihydro-2H-1,4-benzothiazin-3-one]	–	135	16200	–
Cc1ccc(OCc2cccc(OCc3nc4ccccc4n3C)c2)c2c1NC(=O)C2(C)C [Example 37, 4-[3-(N-methylbenzimidazol-2-yl-methoxy)benzyloxy)-3,3,7-trimethyl-2,3-hydro-1H-indol-2-one]	28	204	–	–
Cn1c(COc2ccc(COc3ccc4c(c3)SCC(=O)N4)cc2)nc2ccccc21 [Example 38, 7-(4-(N-methylbenzimidazol-2-yl-methoxy)benzyloxy]-3,4-dihydro-2H-1,4-benzothiazin-3-one]	47	303	–	–
O=C1CSc2cc(OCc3cccc(OCc4nc5ccccc5s4)c3)ccc2N1 [Example 40, 7-[3-(2-benzothiazolylmethoxy)benzyloxy)-3,4-dihydro-2H-1,4-benzothiazin-3-one]	43	1390	–	–
O=C1CCc2ccc(OCc3cccc(OCc4nc5ccccc5s4)c3)cc2N1 [Example 41, 7-[3-(2-benzothiazolylmethoxy)benzyloxy]-1,2,3,4-tetrahydroquinolin-2-one]	–	–	128000	inhibition at 10 µM (LTD4 receptor): 34%
CCOCCn1c(COc2cccc(COc3ccc(C)c4c3C(C)(C)C(=O)N4)c2)nc2ccccc21 [Example 43, 4-(3-(N-ethoxylethylbenzimidazol-2-yl-methoxy)benzyloxy)-3,3,7-trimethyl-2,3-dihydro-1H-indol-2-one]	–	5510	6060	–
CCOCCn1c(COc2cccc(COc3ccc4c(c3)SCC(=O)N4)c2)nc2ccccc21 [Example 44, 7-[3-(N-ethoxylethylbenzimidazol-2-yl-methoxy)benzyloxy]-3,4-dihydro-2H-1,4-benzothiazin-3-one]	–	6300	8670	–
CCOCCn1c(COc2ccc(COc3ccc(C)c4c3C(C)(C)C(=O)N4)cc2)nc2ccccc21 [Example 45, 4-[4-(N-ethoxylethylbenzimidazol-2-yl-methoxy)benzyloxy]-3,3,7-trimethyl-2,3-dihydro-1H-indol-2-one]	40	–	–	inhibition at 10 µM (LTD4 receptor): 32%
CCOCCn1c(COc2ccc(COc3ccc4c(c3)SCC(=O)N4)cc2)nc2ccccc21 [Example 46, 7-[(N-ethoxyethylbenzimidazol-2-yl-methoxy)benzyloxy]-3,4-dihydro-2H-1,4-benzothiazin-3-one]	–	–	–	Kd (H1 receptor; 0.5 nM [^3 H]mepyramin, pH 7.5, 37° C., 30 minutes, calculated from IC50 with Cheng-Prusoff formula): 5950 nM; Kd (LTD4 receptor; 0.2 nM [^3 H]leukotriene D4, pH 7.5, 22° C., 30 minutes, calculated from IC50): 6400 nM
Cc1ccc(OC(=O)c2cccc(OCc3ccc4ccccc4n3)c2)c2cc(C#N)c(=O)[nH]c12 [Example 53, 3-cyano-8-methyl-5-[3-(2-quinolinylmethoxy)benzoyloxy]-1,2-dihydroquinolin-2-one]	38	16	–	–
CC1(C)C(=O)Nc2ccc(OC(=O)c3cccc(OCc4ccc5ccccc5n4)c3)cc21 [Example 59, 3,3-Dimethyl-5-[3-(2-quinolinylmethoxy)benzoyloxy]-2,3-dihydro-1H-indol-2-one]	37	–	–	inhibition at 100 µM (LTD4 receptor): 53%
CC1(C)C(=O)Nc2cc(OC(=O)c3cccc(OCc4ccc5ccccc5n4)c3)ccc21 [Example 60, 3,3-Dimethyl-6-[3-(2-quinolinylmethoxy)benzoyloxy]-2,3-dihydro-1H-indol-2-one]	38	223	–	–
